In experiment [1] the target is T1, Metallo-beta-lactamase VIM-2 [21-266] (Klebsiella pneumoniae, UniProt Q3Y6Q3).
T1 construct: 21-266
The experiment can be described thus: Enzyme Inhibition Assay. As for the experimental part:
(§1) Freshly prepared Zn2-NDM-1 (50 nM) or Zn2-VIM-2 were first incubated with various concentrations of Bi(III) compounds for 1 h at 25° C. The assay was performed in a 1 cm quartz cuvette using the kinetic mode of Varian Cary 50 UV-visible spectrophotometer at 25° C. The final assay buffer contains 50 mM HEPES/Na pH 7.0, 100 mM NaCl and 100 μM MER. The decrease in absorbance at 300 nm due to ring-opening of MER was monitored every second for a duration of 10 mins until the reaction was completed. The initial rate were extracted and calculated from each reaction curves.

Experiment [2] deals with T2, Metallo-beta-lactamase type 2 [29-270] (Klebsiella pneumoniae, UniProt C7C422).
T2 construct: 29-270
T2 sequence (C7C422 29-270): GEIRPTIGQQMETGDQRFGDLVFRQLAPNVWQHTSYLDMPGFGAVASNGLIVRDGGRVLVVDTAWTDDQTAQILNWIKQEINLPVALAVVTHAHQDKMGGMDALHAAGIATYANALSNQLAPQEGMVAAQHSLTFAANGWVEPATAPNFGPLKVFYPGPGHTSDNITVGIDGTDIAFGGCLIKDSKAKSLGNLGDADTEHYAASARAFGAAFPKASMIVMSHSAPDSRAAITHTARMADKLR
Kind of experiment: Enzyme Inhibition Assay. As for the experimental part: as §1

Molecules are shown by their SMILES.

Turning to `C[C@H](CS)C(=O)N1CCC[C@H]1C(=O)O` [US10624871, Compound 15], the IC50 (usually the concentration at which inhibition is half-maximal) in experiment [1] is 6.17 µM.

In turn, `CC(=O)N[C@@H](CS)C(=O)O` [US10624871, Compound 21] gave an IC50 in experiment [2] of 17.7 µM.

`O=C(O)C[C@@](O)(CC(O)O)C(=O)O` [US10624871, Compound 10]: the half-inhibitory concentration (IC50) in experiment [2] was 5.83 µM; in experiment [1] it was 44.5 µM.

Consider `[Bi+3]` [US10624871, Compound Bi(NO3)3], for which the IC50 in experiment [2] is 1.89 µM; in experiment [1] it was 2.45 µM.
